Assay results: patent publication US8895740B2, “Pyrazolopyrazine kinase inhibitors” (Vertex Pharmaceuticals Incorporated, priority 2010, dated 2014)

What was measured:
PKC theta kinase = PKC theta kinase (Homo sapiens, UniProt Q04759); experiment: PKC theta kinase coupled-enzyme (NADH consumption) inhibition assay; type: biochemical; details: 240 μM ATP, 18 nM PKC theta, 30° C.
Description: An assay buffer solution was prepared which consisted of 100 mM HEPES (pH 7.5), 10 mM MgCl2, 25 mM NaCl, 0.1 mM EDTA and 0.01% Brij. An enzyme buffer containing reagents to final assay concentrations of 0.00001% Triton X-100, 200 μg/mL Phosphatidylserine, 20 μg/mL Diacylglycerol, 360 μM NADH, 3 mM phosphoenolpyruvate, 70 μg/mL pyruvate kinase, 24 μg/mL lactate dehydrogenase, 2 mM DTT, 100 μM substrate peptide (ERMRPRKRQGSVRRRV SEQ ID NO. 1) and 18 nM PKC theta kinase was prepared in assay buffer. To 60 μL of this enzyme buffer, in a 384 well plate, was added 2 μL of VRT stock solution in DMSO. The mixture was allowed to equilibrate for 10 mins at 30° C. The enzyme reaction was initiated by the addition of 5 μL stock ATP solution prepared in assay buffer to a final assay concentration of 240 μM. Initial rate data was determined from the rate of change of absorbance at 340 nm (corresponding to stoichiometric consumption of NADH) using a Molecular Devices Spectramax plate reader (Sunnyvale, Calif.) over 15 mins at 30° C. For each Ki determination 12 data points covering the VRT concentration range of 0-20 μM were obtained in duplicate (DMSO stocks were prepared from an initial 10 mM VRT stock with subsequent 1:2 serial dilutions). Ki values were calculated from initial rate data by non-linear regression using the Prism software package (Prism 4.0a, Graphpad Software, San Diego, Calif.).

PKC delta kinase = PKC delta kinase (Homo sapiens, UniProt Q05655); experiment: PKC delta kinase coupled-enzyme (NADH consumption) inhibition assay; type: biochemical; details: 150 μM ATP, 46 nM PKC delta, 30° C.
Description: An assay buffer solution was prepared which consisted of 100 mM HEPES (pH 7.5), 10 mM MgCl2, 25 mM NaCl, 0.1 mM EDTA and 0.01% Brij. An enzyme buffer containing reagents to final assay concentrations of 0.002% Triton X-100, 200 μg/mL Phosphatidylserine, 20 μg/mL Diacylglycerol, 360 μM NADH, 3 mM phosphoenolpyruvate, 70 μg/mL pyruvate kinase, 24 μg/mL lactate dehydrogenase, 2 mM DTT, 150 μM substrate peptide (ERMRPRKRQGSVRRRV SEQ ID NO. 2) and 46 nM PKC delta kinase was prepared in assay buffer. To 16 μL of this enzyme buffer, in a 384 well plate, was added 1 μL of VRT stock solution in DMSO. The mixture was allowed to equilibrate for 10 mins at 30° C. The enzyme reaction was initiated by the addition of 16 μL stock ATP solution prepared in assay buffer to a final assay concentration of 150 μM. Initial rate data was determined from the rate of change of absorbance at 340 nm (corresponding to stoichiometric consumption of NADH) using a Molecular Devices Spectramax plate reader (Sunnyvale, Calif.) over 15 mins at 30° C. For each Ki determination 12 data points covering the VRT concentration range of 0-20 μM were obtained in duplicate (DMSO stocks were prepared from an initial 10 mM VRT stock with subsequent 1:2 serial dilutions). Ki values were calculated from initial rate data by non-linear regression using the Prism software package (Prism 4.0a, Graphpad Software, San Diego, Calif.).

Chain of PKC delta kinase (Q05655 whole entry): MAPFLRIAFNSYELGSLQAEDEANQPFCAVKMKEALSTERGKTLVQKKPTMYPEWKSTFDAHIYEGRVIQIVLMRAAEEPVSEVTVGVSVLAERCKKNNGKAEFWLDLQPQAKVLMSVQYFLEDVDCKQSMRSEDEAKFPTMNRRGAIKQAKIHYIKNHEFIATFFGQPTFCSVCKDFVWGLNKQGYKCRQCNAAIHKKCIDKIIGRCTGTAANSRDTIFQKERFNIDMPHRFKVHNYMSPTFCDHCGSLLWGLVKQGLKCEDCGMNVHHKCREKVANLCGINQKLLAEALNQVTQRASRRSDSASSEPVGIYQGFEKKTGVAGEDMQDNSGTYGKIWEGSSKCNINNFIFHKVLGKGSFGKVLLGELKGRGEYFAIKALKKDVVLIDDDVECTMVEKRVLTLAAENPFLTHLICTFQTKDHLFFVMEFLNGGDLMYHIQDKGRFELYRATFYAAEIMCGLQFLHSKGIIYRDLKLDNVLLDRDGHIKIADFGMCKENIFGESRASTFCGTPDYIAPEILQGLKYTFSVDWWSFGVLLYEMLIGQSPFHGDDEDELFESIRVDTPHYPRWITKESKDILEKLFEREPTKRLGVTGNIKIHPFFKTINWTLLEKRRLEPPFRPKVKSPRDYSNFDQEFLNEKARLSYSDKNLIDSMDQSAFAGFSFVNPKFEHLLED
Chain of PKC theta kinase (Q04759 whole entry): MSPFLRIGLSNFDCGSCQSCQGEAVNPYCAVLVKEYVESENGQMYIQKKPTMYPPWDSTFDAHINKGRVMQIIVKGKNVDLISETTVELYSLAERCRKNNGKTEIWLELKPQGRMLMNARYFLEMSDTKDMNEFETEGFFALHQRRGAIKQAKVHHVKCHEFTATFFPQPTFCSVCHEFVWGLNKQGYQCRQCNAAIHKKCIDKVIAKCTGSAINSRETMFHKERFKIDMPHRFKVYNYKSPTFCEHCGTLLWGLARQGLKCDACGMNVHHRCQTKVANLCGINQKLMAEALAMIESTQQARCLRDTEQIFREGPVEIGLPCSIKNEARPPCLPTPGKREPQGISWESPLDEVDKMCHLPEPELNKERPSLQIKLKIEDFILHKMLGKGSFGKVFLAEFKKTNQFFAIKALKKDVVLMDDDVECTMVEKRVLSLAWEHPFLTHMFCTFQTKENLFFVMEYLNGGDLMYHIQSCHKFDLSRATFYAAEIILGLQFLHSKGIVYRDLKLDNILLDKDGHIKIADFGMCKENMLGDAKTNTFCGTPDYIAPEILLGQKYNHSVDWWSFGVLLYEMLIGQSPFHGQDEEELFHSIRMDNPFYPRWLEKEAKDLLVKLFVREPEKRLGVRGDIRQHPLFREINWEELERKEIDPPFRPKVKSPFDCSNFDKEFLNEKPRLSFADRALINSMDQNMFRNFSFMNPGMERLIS

Ki (PKC theta kinase): < 2.8 µM
Ki (PKC delta kinase): > 1.25 µM
SMILES: c1cc(-c2n[nH]c3nccnc23)nc(N2CCNCC2)c1 [Compound 1, 3-(6-(piperazin-1-yl)pyridin-2-yl)-1H-pyrazolo[3,4-b]pyrazine]
